This passage reports inhibition and IC50 results from patent US10323038B2, “Pyrazole compounds and methods of making and using same” (ABIDE THERAPEUTICS, INC., priority 2015, dated 2019).

The target of assay [1] is MAGL (Mus musculus (Mouse), UniProt O35678). The assay can be described thus: In vitro competitive activity-based protein profiling, MAGL (mouse). The assay is classed as biochemical. As to conditions: for inhibition at 1 µM: read-out: MAGL % inh. 1 μM (mouse). On the procedure: (§1) In Vitro Competitive Activity-Based Protein Profiling.
Chain of MAGL (O35678 whole entry): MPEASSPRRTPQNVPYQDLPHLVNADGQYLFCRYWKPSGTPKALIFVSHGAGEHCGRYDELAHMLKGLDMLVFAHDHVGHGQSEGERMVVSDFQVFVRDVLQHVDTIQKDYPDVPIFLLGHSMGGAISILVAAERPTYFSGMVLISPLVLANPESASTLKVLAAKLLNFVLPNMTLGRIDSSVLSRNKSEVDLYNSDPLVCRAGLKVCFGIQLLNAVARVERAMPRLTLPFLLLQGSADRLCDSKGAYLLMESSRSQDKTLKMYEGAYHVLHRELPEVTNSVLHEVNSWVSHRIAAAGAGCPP
(§2) Proteomes (mouse brain membrane fraction or cell lysates for mouse assays; human prefrontal cortex or cell membrane fractions for human assays) (50 μL, 1.0 mg/mL total protein concentration) were preincubated with varying concentrations of inhibitors at 37° C. After 30 min, FP—Rh or HT-01 (1.0 μL, 50 μM in DMSO) was added and the mixture was incubated for another 30 min at 37° C. Reactions were quenched with SDS loading buffer (15 μL-4×) and run on SDS-PAGE. Following gel imaging, serine hydrolase activity was determined by measuring fluorescent intensity of gel bands corresponding to MAGL and FAAH using ImageJ 1.43u software.

In assay [2] the target is FAAH (Mus musculus (Mouse), UniProt O08914). Description: In vitro competitive activity-based protein profiling, FAAH (mouse). Format: biochemical. The conditions noted are these: for inhibition at 1 µM: read-out: FAAH % inh. 1 μM (mouse). On the procedure:
as §1, §2

Chain of FAAH (O08914 whole entry): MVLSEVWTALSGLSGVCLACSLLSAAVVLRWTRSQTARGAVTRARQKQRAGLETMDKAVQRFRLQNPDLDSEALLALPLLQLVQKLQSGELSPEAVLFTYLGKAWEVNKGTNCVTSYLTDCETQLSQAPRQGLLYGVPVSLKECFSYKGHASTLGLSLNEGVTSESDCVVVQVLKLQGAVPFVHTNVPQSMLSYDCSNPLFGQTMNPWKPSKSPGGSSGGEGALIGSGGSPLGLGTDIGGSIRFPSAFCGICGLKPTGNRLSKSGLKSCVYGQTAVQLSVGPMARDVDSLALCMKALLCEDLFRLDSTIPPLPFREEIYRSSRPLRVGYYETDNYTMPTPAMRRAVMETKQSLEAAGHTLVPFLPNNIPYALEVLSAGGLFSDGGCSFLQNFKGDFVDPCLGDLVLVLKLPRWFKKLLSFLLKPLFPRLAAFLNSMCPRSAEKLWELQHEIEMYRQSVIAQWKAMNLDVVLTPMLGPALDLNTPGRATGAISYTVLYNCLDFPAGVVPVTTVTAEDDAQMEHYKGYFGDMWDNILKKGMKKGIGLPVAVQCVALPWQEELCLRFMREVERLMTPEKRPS

Regarding `CC(=O)N(C)c1cnn(C(=O)N2CCC3(CC2)CN(Cc2ccccc2N2CCCC2)C3)c1` [Example 45, N-methyl-N-(1-(2-(2-(pyrrolidin-1-yl)benzyl)-2,7-diazaspiro[3.5]nonane-7-carbonyl)-1H-pyrazol-4-yl)acetamide], the inhibition at 1 µM is at least 75% in assay [1] and 0 to 25% in assay [2].
Turning to `CC(=O)N(C)c1cnn(C(=O)N2CCC3(CC2)CN(Cc2ccccc2N2CCOCC2)C3)c1` [Example 46, N-methyl-N-(1-(2-(2-morpholinobenzyl)-2,7-diazaspiro[3.5]nonane-7-carbonyl)-1H-pyrazol-4-yl)acetamide], the inhibition at 1 µM in assay [1] is 50 to 75%; in assay [2], 0 to 25%.
For `CC(=O)N(C)c1cnn(C(=O)N2CCC3(CCN(Cc4ccc(N5CCCC5)cc4)C3)C2)c1` (stereo not shown) [Example 47, N-methyl-N-(1-(7-(4-(pyrrolidin-1-yl)benzyl)-2,7-diazaspiro[4.4]nonane-2-carbonyl)-1H-pyrazol-4-yl)acetamide], the inhibition at 1 µM was 25 to 50% in assay [1] and at least 75% in assay [2].
For `CC(=O)N(C)c1cnn(C(=O)N2CCC3(CCN(Cc4c(Cl)cccc4Cl)C3)C2)c1` (stereo not shown) [Example 49, N-(1-(7-(2,6-dichlorobenzyl)-2,7-diazaspiro[4.4]nonane-2-carbonyl)-1H-pyrazol-4-yl)-N-methylacetamide], the IC50 in assay [1] and in assay [2] was 100 to 1000 nM each time. For the same compound, the inhibition at 1 µM in assay [1] and in assay [2] was at least 75% throughout.
As for `CC(=O)N(C)c1cnn(C(=O)N2CCC3(CCN(Cc4ccc(Cl)cc4Cl)C3)C2)c1` (stereo not shown) [Example 51, N-(1-(7-(2,4-dichlorobenzyl)-2,7-diazaspiro[4.4]nonane-2-carbonyl)-1H-pyrazol-4-yl)-N-methylacetamide], the IC50 in assay [1] and in assay [2] was at most 100 nM throughout. The inhibition at 1 µM in assay [1] and in assay [2] was at least 75% each time.
Consider `CC(=O)N(C)c1cnn(C(=O)N2CCC3(CCN(Cc4cc(Cl)cc(Cl)c4)C3)C2)c1` (stereo not shown) [Example 53, N-(1-(7-(3,5-dichlorobenzyl)-2,7-diazaspiro[4.4]nonane-2-carbonyl)-1H-pyrazol-4-yl)-N-methylacetamide], for which the IC50 in assay [1] was 100 to 1000 nM; in assay [2], at most 100 nM. For the same compound, the inhibition at 1 µM in assay [1] and in assay [2] was at least 75% each time.
`CC(=O)N(C)c1cnn(C(=O)N2CCC3(CCN(Cc4ccc(C)cc4Cl)C3)C2)c1` (stereo not shown) [Example 55, N-(1-(7-(2-chloro-4-methylbenzyl)-2,7-diazaspiro[4.4]nonane-2-carbonyl)-1H-pyrazol-4-yl)-N-methylacetamide]: in assay [1], the IC50 was 100 to 1000 nM and the inhibition at 1 µM was at least 75%. In addition, in assay [2], the IC50 is at most 100 nM and the inhibition at 1 µM is at least 75%.
Take `CC(=O)N(C)c1cnn(C(=O)N2CCC3(CCN(Cc4cccc(Cl)c4C)C3)C2)c1` (stereo not shown) [Example 57, N-(1-(7-(3-chloro-2-methylbenzyl)-2,7-diazaspiro[4.4]nonane-2-carbonyl)-1H-pyrazol-4-yl)-N-methylacetamide]: the values for the concentration for half-maximal inhibition (IC50) in assay [1] and in assay [2] were 100 to 1000 nM and at most 100 nM, respectively. The inhibition at 1 µM in assay [1] and in assay [2] was at least 75% in each case.
Consider `CC(=O)N(C)c1cnn(C(=O)N2CCC3(CCN(Cc4cccc(Cl)c4Cl)C3)C2)c1` (stereo not shown) [Example 59, N-(1-(7-(2,3-dichlorobenzyl)-2,7-diazaspiro[4.4]nonane-2-carbonyl)-1H-pyrazol-4-yl)-N-methylacetamide], for which, in assay [1], the concentration for half-maximal inhibition (IC50) fell in the range of 100 to 1000 nM and the inhibition at 1 µM is at least 75%. Moreover, in assay [2], the 50% inhibitory concentration (IC50) was at most 100 nM and the inhibition at 1 µM was at least 75%.
For the compound `CC(=O)N(C)c1cnn(C(=O)N2CCC3(CCN(Cc4ccc(C(F)(F)F)c(N5CCOCC5)c4)C3)C2)c1` (stereo not shown) [Example 61, N-methyl-N-(1-(7-(3-morpholino-4-(trifluoromethyl)benzyl)-2,7-diazaspiro[4.4]nonane-2-carbonyl)-1H-pyrazol-4-yl)acetamide], in assay [1], the IC50 is at most 100 nM and the inhibition at 1 µM is at least 75%. Besides, in assay [2], the IC50 is at most 100 nM and the inhibition at 1 µM is at least 75%.
For the compound `CC(=O)N(C)c1cnn(C(=O)N2CCC3(CCN(Cc4cc(Cl)cc(N5CCOCC5)c4)C3)C2)c1` (stereo not shown) [Example 63, N-(1-(7-(3-chloro-5-morpholinobenzyl)-2,7-diazaspiro[4.4]nonane-2-carbonyl)-1H-pyrazol-4-yl)-N-methylacetamide], the inhibition at 1 µM in assay [1] and in assay [2] was at least 75% each time.
Regarding `CC(=O)N(C)c1cnn(C(=O)N2CCC3(CCN(Cc4cccc(C(F)(F)F)c4)C3)C2)c1` (stereo not shown) [Example 64, N-methyl-N-(1-(7-(3-(trifluoromethyl)benzyl)-2,7-diazaspiro[4.4]nonane-2-carbonyl)-1H-pyrazol-4-yl)acetamide], in assay [1], the IC50 fell in the range of 100 to 1000 nM and the inhibition at 1 µM is at least 75%. In assay [2], the IC50 was at most 100 nM and the inhibition at 1 µM was at least 75%.
For `CC(=O)N(C)c1cnn(C(=O)N2CCC3(CCN(Cc4ccc(N5CCCC5)c(Cl)c4)C3)C2)c1` (stereo not shown) [Example 67, N-(1-(7-(3-chloro-4-(pyrrolidin-1-yl)benzyl)-2,7-diazaspiro[4.4]nonane-2-carbonyl)-1H-pyrazol-4-yl)-N-methylacetamide], in assay [1], the IC50 was 100 to 1000 nM and the inhibition at 1 µM was at least 75%. Further, in assay [2], the IC50 was at most 100 nM and the inhibition at 1 µM is at least 75%.
Consider `CC(=O)N(C)c1cnn(C(=O)N2CCC3(CCN(Cc4cc(N5CCOCC5)cc(C(F)(F)F)c4)C3)C2)c1` (stereo not shown) [Example 68, N-methyl-N-(1-(7-(3-morpholino-5-(trifluoromethyl)benzyl)-2,7-diazaspiro[4.4]nonane-2-carbonyl)-1H-pyrazol-4-yl)acetamide], for which, in assay [1], the half-maximal inhibitory concentration (IC50) lay in the range of 100 to 1000 nM and the inhibition at 1 µM is at least 75%. Moreover, in assay [2], the IC50 was at most 100 nM and the inhibition at 1 µM was at least 75%.
As to `CC(=O)N(C)c1cnn(C(=O)N2CCC3(CCN(Cc4ccc(N5CCCC5)c(C(F)(F)F)c4)C3)C2)c1` (stereo not shown) [Example 69, N-methyl-N-(1-(7-(4-(pyrrolidin-1-yl)-3-(trifluoromethyl)benzyl)-2,7-diazaspiro[4.4]nonane-2-carbonyl)-1H-pyrazol-4-yl)acetamide], the inhibition at 1 µM in assay [1] and in assay [2] was at least 75% in each case.
Consider `CC(=O)N(C)c1cnn(C(=O)N2CCC3(CCN(Cc4cc(Cl)ccc4C(F)(F)F)C3)C2)c1` (stereo not shown) [Example 70, N-(1-(7-(5-chloro-2-(trifluoromethyl)benzyl)-2,7-diazaspiro[4.4]nonane-2-carbonyl)-1H-pyrazol-4-yl)-N-methylacetamide], for which, in assay [1], the IC50 is at most 100 nM and the inhibition at 1 µM was at least 75%. In assay [2], the IC50 was at most 100 nM and the inhibition at 1 µM is at least 75%.
As to `CC(=O)N(C)c1cnn(C(=O)N2CCC3(CCN(Cc4cc(C(F)(F)F)ccc4Cl)C3)C2)c1` (stereo not shown) [Example 71, N-(1-(7-(2-chloro-5-(trifluoromethyl)benzyl)-2,7-diazaspiro[4.4]nonane-2-carbonyl)-1H-pyrazol-4-yl)-N-methylacetamide], the inhibition at 1 µM in assay [1] and in assay [2] was at least 75% in each case.
Turning to `CC(=O)N(C)c1cnn(C(=O)N2CCC3(CCN(Cc4cc(C(F)(F)F)ccc4C(F)(F)F)C3)C2)c1` (stereo not shown) [Example 72, N-(1-(7-(2,5-bis(trifluoromethyl)benzyl)-2,7-diazaspiro[4.4]nonane-2-carbonyl)-1H-pyrazol-4-yl)-N-methylacetamide], the inhibition at 1 µM in assay [1] and in assay [2] was at least 75% each time.
Consider `CC(=O)N(C)c1cnn(C(=O)N2CCC3(CCN(Cc4cc(N5CCCC5)ccc4C(F)(F)F)C3)C2)c1` (stereo not shown) [Example 73, N-methyl-N-(1-(7-(5-(pyrrolidin-1-yl)-2-(trifluoromethyl)benzyl)-2,7-diazaspiro[4.4]nonane-2-carbonyl)-1H-pyrazol-4-yl)acetamide], for which the inhibition at 1 µM in assay [1] and in assay [2] was at least 75% throughout.
As to `CC(=O)N(C)c1cnn(C(=O)N2CCC3(CCN(Cc4cc(C(F)(F)F)ccc4N4CCCC4)C3)C2)c1` (stereo not shown) [Example 74, N-methyl-N-(1-(7-(2-(pyrrolidin-1-yl)-5-(trifluoromethyl)benzyl)-2,7-diazaspiro[4.4]nonane-2-carbonyl)-1H-pyrazol-4-yl)acetamide], the results for the inhibition at 1 µM in assay [1] and in assay [2] were at least 75% and 50 to 75%, respectively.
For `CC(=O)N(C)c1cnn(C(=O)N2CCC3(CCN(Cc4cccc(Cl)c4)C3)C2)c1` (stereo not shown) [Example 78, N-(1-(7-(3-chlorobenzyl)-2,7-diazaspiro[4.4]nonane-2-carbonyl)-1H-pyrazol-4-yl)-N-methylacetamide], in assay [1], the IC50 lay in the range of 1000 to 10000 nM and the inhibition at 1 µM is 50 to 75%. Besides, in assay [2], the IC50 was at most 100 nM and the inhibition at 1 µM is at least 75%.
Turning to `CC(=O)N(C)c1cnn(C(=O)N2CCC3(CCN(Cc4cccc(N5CCCC5)c4)C3)C2)c1` (stereo not shown) [Example 82, N-methyl-N-(1-(7-(3-(pyrrolidin-1-yl)benzyl)-2,7-diazaspiro[4.4]nonane-2-carbonyl)-1H-pyrazol-4-yl)acetamide], the inhibition at 1 µM in assay [1] is 25 to 50%; in assay [2] it was at least 75%.
In the same order, the values of `CC(=O)N(C)c1cnn(C(=O)N2CC3(CCN(Cc4cccc(C)c4)CC3)C2)c1` [Example 83, N-methyl-N-(1-(7-(3-methylbenzyl)-2,7-diazaspiro[3.5]nonane-2-carbonyl)-1H-pyrazol-4-yl)acetamide] are 25 to 50% and 25 to 50%.

For orientation: IC50 means the concentration that gives 50% inhibition.
